The text below walks through data of patent publication US6924299B2, “Methods and compositions useful in enhancing oxygen delivery to cells” (University of Kentucky Research Foundation, priority 2000, dated 2005).

Assay [1] has as its system skin of human volunteers. The assay is described as follows: Visual observation of vasodilation (blushing) after topical application of lotion to forearm. The class given is in vivo. The settings on record: for Vasodilation at 0.1%: 0.1% in skin lotion; for Vasodilation at 0.1% / Vasodilation at 1.0%: anterior forearm, visual blushing; for Vasodilation at 1.0%: 1.0% in skin lotion. How it is done:
This example details the first of two sets of experiments designed to determine the vasodilation effect of alkyl niacin esters. Formulations were prepared by combining the alkyl esters referred to supra in a skin lotion, at 0.1% and 1.0% concentrations. The lotions were applied topically to the skin of human volunteers on the anterior surface of a forearm. Vasodilation was observed visually, i.e., by observing blushing at the site of application, or lack thereof. Both onset and duration of vasodilation were measured.

Assay [2] deals with skin of human volunteers. In words: Skin oxygen / CO2 content by transcutaneous monitor after topical application. It is filed as in vivo. How it is done:
To examine this issue, the oxygen content of skin to which the octyl ester discussed supra was determined directly, using a transcutaneous oxygen monitor. The 1% formulation of the octyl ester was applied to skin for 30 minutes. After this thirty minute period, the skin was cleaned with soap and water, wiped with an alcohol swab, and a drop of deionized water was placed on the sensor surface before its attachment to the anterior surface of the volunteers' forearms. The transcutaneous values were recorded constantly, and stored by the instrument. The monitor measures relative oxygen content, because the temperature at which the monitor operates does impact the oxygen permeability of the stratum corneum. See, e.g., Martin, Resp. […] The sensor was calibrated at 4 hour intervals, or whenever the sensor temperature was changed.
The monitor was operated at a temperature of 40° C. Values are given for both a control, and the formulation described herein.
In a follow-up experiment, the monitor was operated at 38° C., and both O2 and CO2 were measured, with a combined transcutaneous oxygen and CO2 monitor. […] The control is represented by the dotted line.
Parallel experiments were carried out using 0.1% octyl niacin ester lotion, and a lotion containing octyl niacin ester (0.1%), and 0.1% butyl benzoate.
Oxygen content was measured in the same way as is described, supra, or using other techniques known to the art.

Setting [3] is: monitor at 38° C., versus control, FIG. 3.

Take `COC(=O)c1cccnc1` [1 carbon]: in the assay with skin of human volunteers [1], the “Vasodilation at 0.1%” value is on record as “Yes” and the “Vasodilation at 1.0%” value is given as “Yes”.
For `CCOC(=O)c1cccnc1` [2 carbons, Ethyl niacin], in the assay with skin of human volunteers [1], the “Vasodilation at 0.1%” value is reported as “Yes” and the “Vasodilation at 1.0%” value was “Yes”. In addition, the “Vasodilation Effect at 0.1%: Onset” value in the assay on skin of human volunteers [1] (0.1% lotion, visual determination) is 5 to 10 min.
For the molecule `CCCCOC(=O)c1cccnc1` [4 carbons], in the assay on skin of human volunteers [1], the “Vasodilation at 0.1%” value is reported as “Yes” and the “Vasodilation at 1.0%” value is recorded as “Yes”.
`CCCCCCOC(=O)c1cccnc1` [6 carbons, Hexyl niacin]: in the assay on skin of human volunteers [1], the “Vasodilation at 0.1%” value is reported as “Yes” and the “Vasodilation at 1.0%” value is “Yes”.
Turning to `CCCCCCCCOC(=O)c1cccnc1` [8 carbons, Octyl niacin], in the assay with skin of human volunteers [1], the “Vasodilation at 0.1%” value is “Yes” and the “Vasodilation at 1.0%” value is on record as “Yes”. In addition, the “Vasodilation Effect at 0.1%: Duration” value in the assay on skin of human volunteers [1] (0.1% lotion, visual determination, listed as C8) is listed as “longest effect”. The “Skin oxygen content (transcutaneous oxygen monitor)” value in the assay with skin of human volunteers [2] (1% formulation applied 30 minutes, monitor at 40° C., versus control, FIG. 2) was “sustained increase in skin oxygen”. Moreover, in the assay with skin of human volunteers [2] (setting [3]), the “Skin CO2 content (combined transcutaneous oxygen and CO2 monitor)” value is reported as “decrease in CO2 content”; the “Skin oxygen content (combined transcutaneous oxygen and CO2 monitor)” value is given as “sustained increase in skin oxygen content”.
`CCCCCCCCCOC(=O)c1cccnc1` [9 carbons]: in the assay on skin of human volunteers [1], the “Vasodilation at 0.1%” value is “No” and the “Vasodilation at 1.0%” value was “Yes”. Besides, the “Vasodilation at 1.0%” value in the assay with skin of human volunteers [1] (listed as C9) is listed as “caused vasodilation”.
As to `CCCCCCCCCCOC(=O)c1cccnc1` [10 carbons], in the assay on skin of human volunteers [1], the “Vasodilation at 0.1%” value is reported as “No” and the “Vasodilation at 1.0%” value is “Yes”. For the same molecule, the “Vasodilation at 1.0%” value in the assay with skin of human volunteers [1] (listed as C10) is on record as “caused vasodilation”.
As to `CCCCCCCCCCCOC(=O)c1cccnc1` [11 carbons], in the assay on skin of human volunteers [1], the “Vasodilation at 0.1%” value is given as “No” and the “Vasodilation at 1.0%” value is recorded as “Slight”.
As for `CCCCCCCCCCCCOC(=O)c1cccnc1` [12 carbons], in the assay with skin of human volunteers [1], the “Vasodilation at 0.1%” value is listed as “No” and the “Vasodilation at 1.0%” value is reported as “No”.
With `CCCCCCCCCCCCCOC(=O)c1cccnc1` [13 carbons], in the assay on skin of human volunteers [1], the “Vasodilation at 0.1%” value is “No” and the “Vasodilation at 1.0%” value is on record as “No”.
Consider `CCCCCCCCCCCCCCOC(=O)c1cccnc1` [14 carbons], for which, in the assay with skin of human volunteers [1], the “Vasodilation at 0.1%” value was “No” and the “Vasodilation at 1.0%” value was “No”.
Take `CCCCCCCCCCCCCCCOC(=O)c1cccnc1` [15 carbons]: in the assay with skin of human volunteers [1], the “Vasodilation at 0.1%” value is “No” and the “Vasodilation at 1.0%” value is reported as “No”.
As to `CCCCCCCCCCCCCCCCOC(=O)c1cccnc1` [16 carbons], in the assay with skin of human volunteers [1], the “Vasodilation at 0.1%” value is recorded as “No” and the “Vasodilation at 1.0%” value is listed as “No”.
In the case of `CCCCCCCCCCCCCCCCCCOC(=O)c1cccnc1` [18 carbons], in the assay on skin of human volunteers [1], the “Vasodilation at 0.1%” value is “No” and the “Vasodilation at 1.0%” value is reported as “No”.
With `CCCCOC(=O)c1ccccc1` [Butyl benzoate, reference compound], the “Effect on the increase in skin oxygen content caused by octyl niacin ester” value in the assay with skin of human volunteers [2] (lotion with 0.1% octyl niacin ester plus 0.1% butyl benzoate versus 0.1% octyl niacin ester lotion alone, FIG. 4) was “blocked the increase in oxygen content”.
